The subject of experiment [1] is A2780/WT (wild-type) cells. Put plainly: Sulforhodamine B (SRB) cytotoxicity assay in A2780/WT cells. It counts as cell-based. As for the experimental part: (§1) Each of the testing conditions used in this study in both A2780/WT (wild-type) and A2780/DX5 cells were repeated in five to fifteen experiments that were performed on separate days. Each experiment consisted of one microtiter plate with at least eight individual assays of a given drug treatment condition on the plate. The sulforhodamine B (SRB) assay was used to assess cytotoxicity and absorbance at 570 nm (A570) in order to calculate the percentage of cell control (or percent cell survival) for the various treatment conditions in the plate wells.
(§2) Roswell Park Memorial Institute (RPMI 1640) medium, fetal bovine serum (FBS), and L-glutamine were purchased from Gibco BRL. Drugs were dissolved in sterile dimethylsulfoxide (DMSO), from American Type Culture Collection (ATCC) for stock solutions (2.5 to 5.0 mM). Subsequent dilutions were made using cell culture medium (prior to adding the drug to cells). SRB was purchased from Sigma and dissolved in 1.0 percent acetic acid. Trichloroacetic acid was purchased from VWR International.
(§3) Cells were manipulated in a Class IIA/B3 Biological Safety Cabinet (Forma Scientific) and maintained at 37°C in a humidified atmosphere containing 5% CO2 in a water-jacketed cell culture incubator (Forma Scientific). Cells were counted using a Coulter-Z1 counter (Beckman-Coulter). Following drug treatment, plates were washed using a Biomek 2000 station (Beckman) and, following exposure to SRB dye, plates were washed using an automated plate washer (Model EL404, Bio-Tek Instruments). Percentage of control was correlated to A570 values and determined using a Model EL800 plate reader (Bio-Tek Instruments).
(§4) Population doubling times for the two cell lines used in this study encompassed a total of five cell doublings corresponding to approximately 5 days for A2780/WT and A2780/DX5 cells. A2780/WT and A2780/DX5 cells were cultured in RPMI 1640 medium supplemented with 10% fetal bovine serum and 1 mM of L-glutamine. Both cell lines were maintained as monolayered cultures in T-25 or T-75 flasks and then seeded to microtiter plate wells for experiments described herein. Prior to SRB assays, cell viability was monitored by evaluation of microtiter plate wells. Dead cells detach and float while living cells remain attached to the bottom of the cell well.
(§5) The sulforhodamine B (SRB) cytotoxicity assay (see, Skehan P, et al., New colorimetric cytotoxicity assay for anticancer-drug screening. J. Natl. Cancer Inst. 82:1107-1112 (1990)) was used to determine the cytotoxic effects of BNP1350, SN-38, topotecan, 9-NH2-CPT, and 9-NO2-CPT on cell growth in vitro. Briefly, after the medium was aspirated from individual plate wells, trichloroacetic acid (100 µL of 10.0% solution) was added to each well, and the plates were incubated at 4°C for at least 1 hour. The plates were washed five-times with water using an automated microplate washer (Model EL 404, Bio-Tek Instruments), SRB solution (100 µL of 0.4 grams SRB dissolved in 100 mL 1.0 percent acetic acid) was added, and plates remained at room temperature for 15 minutes. The plates were then washed five-times using acetic acid (1.0%), air dried, and bound dye was solubilized in Tris base (150 µL, 10 mM). Plates were agitated (gently) for 5 minutes and the absorbance values of the SRB dye-protein adduct at a 570 nm wavelength (A570) were determined using an automated microtiter plate reader equipped with an A570 filter (Model EL800, BioTek Instruments). Table VII. Summary of Cytotoxicity Experiments in A2780/WT and DX5 Cells
On the technique in general: In SRB staining, fixed cells bind dye roughly in proportion to their protein.

The subject of another experiment is A2780/DX5 cells. Nature of the experiment: Sulforhodamine B (SRB) cytotoxicity assay in A2780/DX5 cells. The settings on record: for IC50 Ratio: A2780/DX5 versus A2780/WT. It counts as cell-based. Here is the method:
as §1, §2, §3, §4, §5

[2] abbreviates: Homo sapiens, A2780, read-out: A2780/ WT (IC50).
[3] abbreviates: Homo sapiens, A2780, read-out: A2780/ DX5 (IC50).
[4] abbreviates: SRB assay, A2780/WT cells, read-out: A2780/ WT (IC50).
Setting [5] is: SRB assay, A2780/DX5 cells, read-out: A2780/ DX5 (IC50).

Like-named read-outs stand apart in the source and are kept apart here.

Regarding `CC[C@@]1(O)C(=O)OCc2c1cc1n(c2=O)Cc2c-1nc1ccccc1c2CC[Si](C)(C)CI` [Compound 4, 11-(4S)-[2-(iodomethyldimethylsilanyl)-ethyl]-4-ethyl-4-hydroxy-1,12-dihydro-4H-2-oxa-6,12a-diaza-dibenzo[b,h]fluorene-3,13-dione], the IC50 in experiment [1] (setting [2]) was determined as 15.7 nM; in the experiment with A2780/DX5 cells (setting [3]) it was 27 nM. Besides, the “IC50 Ratio” value in the experiment with A2780/DX5 cells is 1.72.
With `CC[C@@]1(O)C(=O)OCc2c1cc1n(c2=O)Cc2c-1nc1ccccc1c2CC[Si](C)(C)CO` [Compound 7, (4S)-4-ethyl-4-hydroxy-11-[2-(hydroxymethyldimethylsilanyl)-ethyl]-1,12-dihydro-4H-2-oxa-6,12a-diaza-dibenzo[b,h]fluorene-3,13-dione], the IC50 in experiment [1] (setting [2]) was found to be 9.6 nM; with A2780/DX5 cells (setting [3]), 40.3 nM. In addition, the “IC50 Ratio” value in the experiment on A2780/DX5 cells is on record as 4.2.
The corresponding values for `CC[C@@]1(O)C(=O)OCc2c1cc1n(c2=O)Cc2c-1nc1ccccc1c2CC[Si](C)(C)CSC[C@H](NC(=O)OC(C)(C)C)C(=O)OC` [Compound 8, (2R, 4S)-2-tert-butoxycarbonylamino-3-({[2-(4-ethyl-4-hydroxy-3,13-dioxo-3,4,12,13-tetrahydro-1H-2-oxa-6,12a-diaza-dibenzo[b,h]fluoren-11-yl)-ethyl]-dimethyl-silanyl}-methylsulfanyl)-propionic acid methyl ester] are 39.8 nM, 110 nM and 2.77.
`CCC1(O)C(=O)OCc2c1cc1n(c2=O)Cc2c-1nc1ccccc1c2CC[Si](C)(C)CSC(C)=O` (stereo not drawn) [Compound 9, thioacetic acid S-({[2-(4-ethyl-4-hydroxy-3.13-dioxo-3,4,12,13-tetrahydro-1H-2-oxa-6,12a-diaza-dibenzo[b,h]fluoren-11-yl)-ethyl]-dimethylsilanyl} -methyl) ester]: the IC50 in experiment [1] (setting [4]) is 64.7 nM; in the experiment on A2780/DX5 cells (setting [5]) it was 125 nM. The “IC50 Ratio” value in the experiment on A2780/DX5 cells worked out at 1.94.
For `CC[C@@]1(O)C(=O)OCc2c1cc1n(c2=O)Cc2c-1nc1ccccc1c2CC[Si](C)(C)CCCS(=O)(=O)c1ccccc1` [Compound 13, (4S)-11-{2-[(3-benzenesulfonylaronyl)-dimethylsilanyl]-ethyl}-4-ethyl-4-hydroxy-1,12-dihydro-4H-2-oxa-6,12a-diaza-dibenzo[b,h]fluorene-3,13-dione], the IC50 is 8.5 nM in experiment [1] (setting [4]) and 53.5 nM with A2780/DX5 cells (setting [5]). In addition, the “IC50 Ratio” value with A2780/DX5 cells was determined as 6.3.
As to `CC[C@@]1(O)C(=O)OCc2c1cc1n(c2=O)Cc2c-1nc1ccccc1c2CC[Si](C)(C)CCCn1ccnc1` [Compound 14, (4S)-4-ethyl-4-hydroxy-11-{2-[(3-imidazol-1-yl-propyl)-dimethyl-silanyl]-ethyl}-1,12-dihydro-4H-2-oxa-6,2a-diaza-dibenzo[b,h]fluorene-3,13-dione], the IC50 in experiment [1] (setting [4]) amounted to 11.2 nM; in the experiment on A2780/DX5 cells (setting [5]) it was 166 nM. In addition, the “IC50 Ratio” value in the experiment on A2780/DX5 cells amounted to 14.8.
As to `CC[C@@]1(O)C(=O)OCc2c1cc1n(c2=O)Cc2c-1nc1ccccc1c2CC[Si](C)(C)CCCn1cncn1` [Compound 15, (4S)-11-{2-[dimethyl-(3-[1,2,4]triazol-1-yl-pronyl)-silanyl]-ethyl}-4-ethyl-4-hydroxy-1,12-dihydro-4H-2-oxa-6,12a-diaza-dibenzo[b,h]fluorene-3,13-dione], the values for the IC50 (in experiment [1] (setting [4]); in the experiment with A2780/DX5 cells (setting [5])) were 9 nM and 62.4 nM, respectively. For the same compound, the “IC50 Ratio” value in the experiment with A2780/DX5 cells is listed as 6.9.
With `CC[C@@]1(O)C(=O)OCc2c1cc1n(c2=O)Cc2c-1nc1ccccc1c2CC[Si](C)(C)CCCN(C)C` [Compound 16, (4S)-11-{2-[(3-dimethylaminopropyl)-dimethysilanyl]-ethyl}-4-ethyl-4-hydroxyl-1,12-dihydro-4H-2-oxa-6,12a-diaza-dibenzo[b,h]fluorene-3,13-dione], the IC50 was 23.6 nM in experiment [1] (setting [4]) and 512 nM with A2780/DX5 cells (setting [5]). Moreover, the “IC50 Ratio” value in the experiment on A2780/DX5 cells worked out at 21.7.

The values are drawn from patent publication EP2197879B1, “C7-SUBSTITUTED CAMPTOTHECIN ANALOGS” (priority 2007, dated 2009).
